Results from patent US20250134799A1, “COMPOSITION CONTAINING NERO DI TROIA POMACE EXTRACT” (PLANBIO COSMETICS SRL, priority 2022, published 2025).

System: HaCaT cells
Assay: Cellular viability of HaCaT cells by MTS colorimetric assay
Type: cell-based, human
Settings: 24 hours
Procedure: The aim of this study was to evaluate in vitro the effect of GExtract NdT (obtained in Example 1) on the viability of the human keratinocyte cell line HaCaT. The evaluation was performed on cells exposed to GExtract NdT at a dilution of 2% in complete medium for 24 hours. The cellular viability was measured by MTS colorimetric essay through the absorbance measurement obtained from the conversion of a bioreduced tertazolium compound from viable cells into a coloured formazan soluble in the culture medium. The HaCaT cells were exposed for 24 hours to 2% of GExtract NdT of and Triton-X 100 and subsequently the viability was evaluated by MTS assay.

TRITON-X 100
Concentration from which the surfactant lysed all the cells: ≥ 0.01%
% CTR (cell viability, percentage normalized on the control group) (0.005% (v/v)): 52.098%
% CTR (cell viability, percentage normalized on the control group) (0.01% (v/v)): 0%
% CTR (cell viability, percentage normalized on the control group) (0.05% (v/v)): 0%
% CTR (cell viability, percentage normalized on the control group) (0.5% (v/v)): 0%
